According to patent US6809096B1, “Phenanthroline-7-one derivatives and their therapeutic uses” (Laboratoire L. Lafon, priority 1999, dated 2004):

How the values were obtained:
HI-MXT tumours = test: In vivo antitumour activity, hormone-insensitive mouse mammary carcinoma MXT (HI-MXT), tumour growth; settings: 5 mg/kg intraperitoneally; for Tumour area (expressed as %): decrease (−) or increase (+) in HI-MXT tumour area vs control on the 21st day after grafting, 6 administrations
Method: (§1) The tests were carried out on models of:
hormone-insensitive mouse mammary carcinoma MXT (HI-MXT),
(§2) The model of mouse mammary adenocarcinoma MXT of Watson C. et al. (Cancer Res., 1977; […]: 3344-48), grafted onto B6D2F1/Jico mice aged from 4 to 6 weeks, is derived from the mammary gland milk ducts. Initially hormone-sensitive (HS-MXT model), the differentiated tumour develops in the direction of an undifferentiated hormone-insensitive tumour (HI-MXT model). […] This is the case, for example, with cyclophosphamide, etoposide or adriamycin.
(§3) When the MTD value of a product was determined, its in vivo antitumour activity was characterized at the MTD/2, MTD/4 and MTD/8 doses on the models of mammary adenocarcinoma of mouse origin HS-MXT and of mouse mammary carcinoma HI-MXT and on the model of subcutaneous lymphoma L 1210.
(§4) In all the examples presented below, whatever the model, the control condition is represented by a batch of 9 or 15 mice to which is administered, for 3 consecutive weeks and at the rate of 3 administrations (Monday, Wednesday and Friday) per week, a volume of 0.2 ml of physiological saline comprising the solvent used to dissolve the various compounds of formula (I) and (Ia) used.
(§5) i)—The tumour growth was evaluated by measuring twice weekly (Monday and Friday) the area of the grafted HS-MXT, HI-MXT or L 1210 tumours. This area is calculated by multiplying the value of the two greatest perpendicular axes of the tumour. The value of these axes is measured using a sliding caliper.
The influence of the two products CRL 8293 and CRL 8294 on the growth of HI-MXT tumours will be presented below by way of example. Each batch of mice grafted with HI-MXT tumours relating to a given experimental condition comprises 15 animals.
The product CRL 8293 is administered intraperitoneally. The first injection of the product is carried out on the seventh day postgrafting (D7) at the rate of 3 injections per week (Monday, Wednesday and Friday) for 3 consecutive weeks and at a dose of 5 mg/kg.
The product CRL 8294 is administered intraperitoneally. The first injection of the product is carried out on the seventh day postgrafting (D7) at the rate of 3 injections per week (Monday, Wednesday and Friday) for 3 consecutive weeks and at a dose of 5 mg/kg.
The decreases (−) or the increases (+) in the area of the HI-MXT tumours induced with treatments 1 and 2 with respect to the control condition on the 21st day after the tumour grafting, i.e. after 6 administrations of the product CRL 8293 or of the product CRL 8294, are shown, as percentage, in the following Table II. 100% of the control animals are still alive on the 21st day postgrafting.

HS-MXT tumours = test: In vivo antitumour activity, hormone-sensitive mouse mammary adenocarcinoma MXT (HS-MXT), tumour growth; settings: 5 mg/kg intraperitoneally; for Tumour area (expressed as %): decrease (−) or increase (+) in HS-MXT tumour area vs control on the 31st day after grafting, 9 administrations
Method: as §1
hormone-sensitive mouse mammary adenocarcinoma MXT (HS-MXT),
as §2, §3, §4, §5
The influence of the two products CRL 8293 and CRL 8294 on the growth of HS-MXT tumours will be presented below by way of example. Each batch of mice grafted with the HS-MXT tumours relating to a given experimental condition comprises 9 animals.
The product CRL 8293 is administered intraperitoneally. The first injection of the product is carried out on the seventh day postgrafting (D7) at the rate of 3 injections per week (Monday, Wednesday and Friday) for 3 consecutive weeks and at a dose of 5 mg/kg.
The product CRL 8294 is administered alone by the intraperitoneal route. The first injection of the product is carried out on the seventh day postgrafting (D7) at the rate of 3 injections per week (Monday, Wednesday and Friday) for 3 consecutive weeks and at a dose of 5 mg/kg.
The decreases (−) or the increases (+) in the area of the HS-MXT tumours induced with treatments 10 and 20 with respect to the control condition on the 31st day after the tumour grafting, i.e. after the 9 administrations provided in the experimental protocol of the 2 products CRL 8293 and CRL 8294, are shown, as percentage, in the following Table IV. 100% of the control animals are still alive on the 31st day postgrafting.

Structure (SMILES) | growth of the HI-MXT tumours (in words) (HI-MXT tumours) | Tumour area (expressed as %) (HI-MXT tumours) | growth of the HS-MXT tumours (in words) (HS-MXT tumours) | Tumour area (expressed as %) (HS-MXT tumours)
O=C1c2cccnc2-c2nccc3ccnc1c23 [CRL 8293, 7H-Pyrido[4,3,2-de][1,10]phenanthroline-7-one] | significant decrease | −33% | very highly significant decrease | −45%
O=C1c2ncccc2-c2nccc3ccnc1c23 [CRL 8294, 7H-Pyrido[4,3,2-de][1,7phenanthroline-7-one] | significant decrease | −36% | very highly significant decrease | −64%
